Each structure is given as a SMILES string.

The target of the test is Protein kinase C alpha type (Homo sapiens, UniProt P17252). The test can be described thus: Displacement of [3H-20] phorbol 12,13-dibutyrate(PDBU) from recombinant Protein kinase C alpha. (In general: Loss of bound radioactivity is the signal in a displacement assay; it reports binding, not function.)
Take `CCCCCCCCCCCCCC(=O)O[C@@H](CO)[C@H]1CCC(=O)O1`: the Ki (usually the equilibrium dissociation constant of an inhibitor or competing ligand from its target) turned out to be 28 µM.

`CCCCCCCCCCCCCCOC(=O)C[C@@]1(CO)COC(=O)C1`: the Ki worked out at 16.9 µM.

As to `CCCCCCCCCCCCCCOC(=O)C[C@]1(CCO)COC(=O)C1`, the Ki stood at 10.4 µM.

Consider `CCCCCCCCCCCCCCOC(=O)CC1(CCO)COC(=O)C1` (single isomer, unassigned), for which the Ki amounted to 24.1 µM.

For the compound `CCCCCCCCCCCCCC(=O)O[C@@H](CO)[C@@H]1CCC(=O)O1`, the Ki amounted to 1.07 µM.

Turning to `CCCCCCCCCCCCCCOC(=O)C[C@@]1(CCO)COC(=O)C1`, the inhibitory constant (Ki) came to 18.4 µM.

The record behind these values is ChEMBL document CHEMBL1129054, “Conformationally constrained analogues of diacylglycerol. 13. Protein kinase C ligands based on templates derived from 2,3-dideoxy-L-erythro(threo)-hexono-1,4-lactone and 2-deoxyapiolactone” (J Med Chem, 1996).
